In US20260041744A1, “Methods for Treating Pompe Disease” (Amicus Therapeutics, Inc., priority 2022, published 2026):
“Also recorded” adds a separate entry of the source.

Experiments:
Gaa KO mice [1] = experiment: Muscle fiber size (minimum Feret's diameter) in quadriceps, 12 biweekly injections; assay type: in vivo, mouse; conditions: 20 mg/kg, 12 biweekly bolus injections
Description: FIG. 78 is a graph showing the effect of long-term cipaglucosidase alfa administration (20 mg/kg, 12 biweekly bolus injections) versus alglucosidase alfa on muscle fiber size by mean minimum fiber diameter (FD) in Gaa KO mouse quadriceps.
Gaa mice, like patients with Pompe disease, show a decrease in muscle fiber size as a consequence of muscle atrophy.

adult subjects with LOPD [2] = experiment: Study ATB200-07 (OLE of PROPEL): 6MWD and % predicted 6MWD; assay type: in vivo, human; conditions: Study ATB200-03/07, excluding the outlier
From the text: (§1) The study doses and schedule are maintained from Study ATB200-03.
(§2) Efficacy data are presented in this summary as change from the baseline of Study ATB200-03 (OLE-ES Population).

[3] = system: 4MU-a-Glucoside hydrolysis (GAA activity); experiment: GAA enzyme activity by 4MU-a-Glucoside hydrolysis after PAP treatment; assay type: biochemical, human; conditions: PAP 18 hours
Description: Removal of phosphoesters mono- and bis-M6P was completed by the enzyme purple acid phosphatase (PAP). PAP hydrolyzes phosphate esters and anhydrides. […] Cipaglucosidase alfa was treated with PAP for 18 hours, and alglucosidase alfa in the same reaction conditions but without PAP addition was used as a mock-treated control. PAP treatment results in complete removal of the bis-M6P peak and nearly all of the mono-M6P peak from the cipaglucosidase alfa LC-FLD chromatogram. Additional peaks are clearly observed in the neutral high mannose glycan region resulting from the removal of phosphates from mono- and bis-phosphorylated high mannose glycans.

[4] = system: Pompe patient fibroblasts; experiment: Cellular uptake into Pompe patient fibroblasts (20 nM rhGAA, 18-hr); assay type: cell-based, human
Description: The relative cellular uptake into Pompe patient fibroblasts of dephosphorylated cipaglucosidase alfa compared to mock-treated cipaglucosidase alfa and mock-treated alglucosidase alfa was assessed. Comparisons at a concentration of 20 nM of rhGAA was used to mimic the interstitial concentration of cipaglucosidase alfa that crosses into tissues, as shown in FIG. 77A. After an 18-hr incubation for enzyme uptake, cells were washed for 2 hours, harvested, lysed, and then processed for GAA activity and western blot analysis. Internalized GAA measured by 4MU-a-Glucoside hydrolysis and was graphed relative to total cellular protein and the results appear in FIG. 77B.
However, cell uptake of PAP-treated cipaglucosidase alfa is abolished.

adult subjects with LOPD [5] = experiment: Study ATB200-07 (OLE): sitting % predicted FVC; assay type: in vivo, human; conditions: Study ATB200-03/07, excluding the outlier
From the text: as §1, §2

Gaa KO mice [6] = experiment: Single fiber analysis (LAMP1/LC3 co-immunofluorescence, white gastrocnemius); assay type: in vivo, mouse; conditions: single fibers
From the text: FIG. 17 depicts co-immunofluorescent staining of LAMP1 (green) (see for example, “B”) and LC3 (red) (see, for example, “A”) in single fibers isolated from the white gastrocnemius of Gaa KO mice treated with a vehicle, alglucosidase alfa, or ATB200. “C” depicts clearance of autophagic debris and absence of enlarged lysosome. A minimum of 30 fibers were examined from each animal.
As a result, a significant portion of muscle fibers analyzed (36-60%) from ATB200-treated mice appeared normal or near-normal.

CIMPR [7] = target: T1, CIMPR (Homo sapiens, UniProt P11717); experiment: CIMPR Overlay Assay (far-western blot); assay type: binding
Description: The CIMPR Overlay Assay is a variation on a far-western blot where proteins are separated on an SDS-PAGE, transferred to a nitrocellulose membrane, and incubated with purified CIMPR in the place of a primary antibody as in a conventional western blot. Binding of CIMPR to M6P-containing glycans on rhGAA proteins is then visualized by an anti-CIMPR antibody.

CIMPR [8] = target: T1, CIMPR; experiment: CIMPR plate binding assay
Description: In addition to having a greater percentage of rhGAA that can bind to the CIMPR, it is important to understand the quality of that interaction. LUMIZYME® and ATB200 receptor binding was determined using a CIMPR plate binding assay. Briefly, CIMPR-coated plates were used to capture GAA. Varying concentrations of rhGAA were applied to the immobilized receptor and unbound rhGAA was washed off. The amount of remaining rhGAA was determined by GAA activity.
N-glycan analysis via MALDI-TOF mass spectrometry confirmed that on average each ATB200 molecule contains at least one natural bis-M6P N-glycan structure.

[9] = system: normal and Pompe fibroblast cell lines; experiment: Cellular uptake of rhGAA into fibroblasts (16-hr incubation, internalized GAA by 4MU-α-Glucoside hydrolysis); assay type: cell-based, human
Description: The relative cellular uptake of ATB200 and LUMIZYME® rhGAA were compared using normal and Pompe fibroblast cell lines. Comparisons involved 5-100 nM of ATB200 according to the disclosure with 10-500 nM conventional rhGAA product LUMIZYME®. After 16-hr incubation, external rhGAA was inactivated with TRIS base and cells were washed 3-times with PBS prior to harvest. Internalized GAA measured by 4MU-α-Glucoside hydrolysis and was graphed relative to total cellular protein and the results appear in FIGS. 11A-11C.
ATB200 was also shown to be efficiently internalized into cells. […] ATB200 saturates cellular receptors at about 20 nM, while about 250 nM of LUMIZYME® is needed to saturate cellular receptors.

ATB200 = ATB200 (Homo sapiens, UniProt P10253); experiment: Thermostability assay using SYPRO Orange
[10] = human, in vivo
From the text: Blood sampling for plasma GAA protein and miglustat concentrations were taken for cohort 1 (ERT-experienced) and cohort 3 (ERT-naïve) only. To prevent any undue burden on patients, blood sampling for PK was not performed for non-ambulatory patients (cohort 2) and, due to similarity to cohort 1, those in cohort 4.

[11] = system: adults with Pompe disease; experiment: Study ATB200-02 (20 mg/kg cipaglucosidase alfa IV + 260 mg miglustat): 6MWT (6MWD, % predicted 6MWD); assay type: in vivo, human;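 also: Open-label Phase I/II trial, ambulatory cohorts only, values are changes from baseline or counts relative to the baseline walk test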
Description: The change from baseline (CFBL) in 6MWD, % predicted sitting FVC, manual muscle test (MMT) and biomarkers—urine glucose tetrasaccharide (Hex4) and serum creatine kinase (CK)—were assessed at regular intervals.
The 4 cohorts in the study are as follows: • Cohort 1: ERT-experienced (2 to 6 years) ambulatory subjects (11 subjects) • Cohort 2: ERT-experienced (≥2 years) non-ambulatory subjects (6 subjects) • Cohort 3: ERT-naïve ambulatory subjects (6 subjects)· • Cohort 4: ERT-experienced (≥7 years) ambulatory subjects (6 subjects)
In Study ATB200-02, motor function was evaluated in all ambulatory subjects (ie, Cohorts 1, 3, and 4) (Table 23, FIGS. 46A-46D).

animals = conditions: in vivo
From the text: It is not known whether miglustat is secreted in breast milk. A risk to newborns/breastfed infants cannot be ruled out. The developmental and health benefits of breastfeeding should be considered, as well as the clinical need for the mother to receive co-administration therapy with cipaglucosidase alfa and miglustat, and any adverse reactions experienced by the breastfed child potentially related to the co-administration of cipaglucosidase alfa and miglustat or the underlying maternal condition. In some embodiments, breastfeeding is not allowed while taking cipaglucosidase alfa and miglustat. There are no clinical data on the effects of co-administration therapy of cipaglucosidase alfa and miglustat on fertility.

[12] = system: adults with Pompe disease; experiment: Study ATB200-02: sitting % predicted FVC
Description: Four cohorts of patients with Pompe disease were enrolled in the ATB200-02 study: • Cohort 1: ERT-experienced, aged 18-65 years, with 2-6 years prior ERT with 20 mg/kg alglucosidase alfa every 2 weeks (n=11) • Cohort 2: Non-ambulatory ERT-experienced, aged 18-65 years, with ≥2 years prior ERT with 20 mg/kg alglucosidase alfa every 2 weeks (n=6)· • Cohort 3: ERT-naïve, aged 18-65 years (n=6). • Cohort 4: ERT-experienced, aged 18-75 years, with ≥7 years prior ERT with 20 mg/kg alglucosidase alfa every 2 weeks (n=6)
The change from baseline (CFBL) in 6MWD, % predicted sitting FVC, manual muscle test (MMT) and biomarkers—urine glucose tetrasaccharide (Hex4) and serum creatine kinase (CK)—were assessed at regular intervals. Data with up to 36 months of follow-up in ERT-experienced and ERT-naïve patients is provided herein. […] Due to the staggered timing of patient enrollment, the number of patients with data currently available decreases at later time-points in this ongoing study.

[13] = Cipaglucosidase alfa pharmacokinetics in ERT-experienced adult patients with LOPD; assay type: in vivo, human
[14] = ERT-experienced, Study ATB200-02, Cohort 1 and 4 combined
[15] = ERT-naïve, Study ATB200-02, Cohort 3
[16] = ERT-experienced, Study ATB200-02
[17] = 20 mg/kg in combination with Miglustat 260 mg

T1 sequence (P11717 41-2491, species assumed): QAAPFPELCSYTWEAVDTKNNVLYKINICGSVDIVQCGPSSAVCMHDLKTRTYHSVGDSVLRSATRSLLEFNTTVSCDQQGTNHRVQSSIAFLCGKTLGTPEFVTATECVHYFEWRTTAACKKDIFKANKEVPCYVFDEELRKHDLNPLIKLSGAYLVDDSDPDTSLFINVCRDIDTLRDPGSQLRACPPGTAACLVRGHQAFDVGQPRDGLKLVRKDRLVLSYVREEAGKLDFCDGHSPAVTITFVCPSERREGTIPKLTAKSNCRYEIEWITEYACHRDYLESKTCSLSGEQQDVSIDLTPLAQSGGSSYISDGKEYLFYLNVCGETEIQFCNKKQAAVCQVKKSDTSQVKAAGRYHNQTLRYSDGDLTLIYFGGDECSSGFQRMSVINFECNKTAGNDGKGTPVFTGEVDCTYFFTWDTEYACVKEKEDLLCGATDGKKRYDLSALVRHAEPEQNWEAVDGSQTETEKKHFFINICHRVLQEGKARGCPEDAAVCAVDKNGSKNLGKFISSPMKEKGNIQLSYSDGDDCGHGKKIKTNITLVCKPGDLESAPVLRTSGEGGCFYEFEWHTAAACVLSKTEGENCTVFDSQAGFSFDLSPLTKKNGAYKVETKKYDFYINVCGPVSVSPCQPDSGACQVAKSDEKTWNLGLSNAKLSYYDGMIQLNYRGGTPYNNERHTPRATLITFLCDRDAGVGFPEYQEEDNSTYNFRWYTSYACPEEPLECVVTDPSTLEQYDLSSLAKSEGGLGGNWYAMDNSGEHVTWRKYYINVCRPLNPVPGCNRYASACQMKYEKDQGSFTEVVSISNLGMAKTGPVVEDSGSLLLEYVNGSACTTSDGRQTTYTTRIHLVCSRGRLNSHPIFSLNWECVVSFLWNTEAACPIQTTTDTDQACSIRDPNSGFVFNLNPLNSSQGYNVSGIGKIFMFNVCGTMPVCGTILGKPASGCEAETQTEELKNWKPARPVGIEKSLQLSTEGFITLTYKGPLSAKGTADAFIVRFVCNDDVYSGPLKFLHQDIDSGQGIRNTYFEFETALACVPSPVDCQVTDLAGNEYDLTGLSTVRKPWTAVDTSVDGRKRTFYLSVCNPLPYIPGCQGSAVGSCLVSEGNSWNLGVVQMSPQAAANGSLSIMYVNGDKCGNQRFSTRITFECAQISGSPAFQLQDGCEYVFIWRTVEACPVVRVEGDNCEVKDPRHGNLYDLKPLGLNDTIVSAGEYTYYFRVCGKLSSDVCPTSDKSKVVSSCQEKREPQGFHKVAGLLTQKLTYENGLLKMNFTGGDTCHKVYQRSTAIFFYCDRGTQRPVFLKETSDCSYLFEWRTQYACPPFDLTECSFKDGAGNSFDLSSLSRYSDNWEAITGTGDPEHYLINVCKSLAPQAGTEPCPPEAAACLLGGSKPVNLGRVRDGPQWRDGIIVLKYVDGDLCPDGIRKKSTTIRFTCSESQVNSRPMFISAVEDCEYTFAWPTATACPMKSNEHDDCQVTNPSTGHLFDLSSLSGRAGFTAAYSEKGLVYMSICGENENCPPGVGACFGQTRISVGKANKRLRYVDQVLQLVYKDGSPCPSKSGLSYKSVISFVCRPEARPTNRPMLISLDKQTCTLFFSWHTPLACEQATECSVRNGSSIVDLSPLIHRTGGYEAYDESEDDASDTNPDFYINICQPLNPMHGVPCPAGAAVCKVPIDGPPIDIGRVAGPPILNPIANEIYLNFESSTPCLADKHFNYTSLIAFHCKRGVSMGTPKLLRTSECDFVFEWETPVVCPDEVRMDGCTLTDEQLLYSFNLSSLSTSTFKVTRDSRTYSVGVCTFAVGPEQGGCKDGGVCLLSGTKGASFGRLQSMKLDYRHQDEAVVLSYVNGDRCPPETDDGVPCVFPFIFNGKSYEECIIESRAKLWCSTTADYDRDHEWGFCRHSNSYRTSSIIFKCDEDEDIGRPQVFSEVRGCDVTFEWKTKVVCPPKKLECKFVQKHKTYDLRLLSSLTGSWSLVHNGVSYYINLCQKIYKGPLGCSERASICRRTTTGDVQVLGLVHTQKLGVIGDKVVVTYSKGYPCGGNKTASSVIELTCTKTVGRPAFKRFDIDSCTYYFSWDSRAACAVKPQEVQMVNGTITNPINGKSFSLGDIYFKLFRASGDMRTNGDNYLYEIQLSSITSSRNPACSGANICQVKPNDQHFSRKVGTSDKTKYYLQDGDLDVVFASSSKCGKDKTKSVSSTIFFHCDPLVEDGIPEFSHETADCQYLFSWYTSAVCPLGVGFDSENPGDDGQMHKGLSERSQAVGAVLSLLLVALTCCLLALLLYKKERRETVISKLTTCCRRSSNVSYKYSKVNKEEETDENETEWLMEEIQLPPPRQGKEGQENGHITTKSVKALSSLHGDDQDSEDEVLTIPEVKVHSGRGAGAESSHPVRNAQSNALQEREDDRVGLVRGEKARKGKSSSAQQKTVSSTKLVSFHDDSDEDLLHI

ATB200: recombinant human acid α-glucosidase with a high content of N-glycans bearing mono-M6P and bis-M6P, produced from GA-ATB200 CHO cell line
muscle fiber size vs alglucosidase alfa (Gaa KO mice [1]): significantly improved muscle fiber size | 6MWD Baseline, Mean (adult subjects with LOPD [2]; ERT-experienced): 342.4 | 6MWD CFBL M12 (W 52) Mean (adult subjects with LOPD [2]; ERT-experienced): 16.3 | 6MWD CFBL M24 (W 104) Mean (adult subjects with LOPD [2]; ERT-experienced): 14.2 | 6MWD Baseline, Mean (adult subjects with LOPD [2]; ERT-naïve): 393.6 | 6MWD CFBL M12 (W 52) Mean (adult subjects with LOPD [2]; ERT-naïve): 33.4 | 6MWD CFBL M24 (W 104) Mean (adult subjects with LOPD [2]; ERT-naïve): 38.8 | enzyme activity after PAP treatment [3]: retaining the enzyme activity | cellular uptake into Pompe fibroblasts [4]: better cellular uptake compared to alfaglucosidase alfa | % Predicted FVC Baseline Mean (adult subjects with LOPD [5]; ERT-experienced): 67.7 % predicted | % Predicted FVC CFBL M12 (W 52) Mean (adult subjects with LOPD [5]; ERT-experienced): 0.1 % predicted | % Predicted FVC CFBL M24 (W 104) Mean (adult subjects with LOPD [5]; ERT-experienced): −0.6 % predicted | % Predicted FVC Baseline Mean (adult subjects with LOPD [5]; ERT-naïve): 80.2 % predicted | % Predicted FVC CFBL M12 (W 52) Mean (adult subjects with LOPD [5]; ERT-naïve): −4.7 % predicted | % Predicted FVC CFBL M24 (W 104) Mean (adult subjects with LOPD [5]; ERT-naïve): −4.8 % predicted | Fibers with Normal or Near-normal Appearance (Gaa KO mice [6]): 36-60% | Lysosome Enlargement (Gaa KO mice [6]): dramatically decreased lysosome size; also recorded: Dramatic size | CIMPR binding in overlay assay (CIMPR [7]): binds with high affinity to CIMPR as shown by an intense band | CIMPR binding compared with LUMIZYME (CIMPR [8]; CIMPR-coated plates): bound to CIMPR significantly better than LUMIZYME® | Kd (CIMPR [8]; M6P receptor plate binding assays): 2 to 4 nM | uptake efficiency constant (Kuptake) ([9]; extrapolated from uptake curves): 2-3 nm | internalization into fibroblasts ([9]; normal and Pompe fibroblast cells): internalized to a greater degree than the conventional rhGAA product LUMIZYME® | rhGAA concentration that saturates cellular receptors ([9]; normal and Pompe fibroblasts): about 20 nM | Tm (ATB200; pH 5.2): 67.3 °C | Tm (ATB200; pH 7.4): 56.2 °C | Tm (ATB200; pH 7.4 + 10 μM miglustat): 61.6 °C | Tm (ATB200; pH 7.4 + 30 μM miglustat): 62.9 °C | Tm (ATB200; pH 7.4 + 100 μM miglustat): 66.0 °C | median time of peak signature peptide T09 concentrations (tmax) [10]: approximately 4 hours | 6MWD Baseline, Mean [11, 14]: 393.5 | 6MWD CFBL M12 (W 52) Mean [11, 14]: 33.5 | 6MWD CFBL M24 (W 104) Mean [11, 14]: 25.2 | 6MWD Baseline, Mean [11, 15]: 396.0 | 6MWD CFBL M12 (W 52) Mean [11, 15]: 57.0 | 6MWD CFBL M24 (W 104) Mean [11, 15]: 54.4 | excretion in milk (animals): excretion of cipaglucosidase alfa in milk | fertility, preclinical data (animals): did not reveal any significant adverse reactions | % Predicted FVC Baseline Mean [12, 16]: 57.4 % predicted | % Predicted FVC CFBL M12 (W 52) Mean [12, 16]: −1.2 % predicted | % Predicted FVC CFBL M24 (W 104) Mean [12, 16]: 1.0 % predicted | % Predicted FVC Baseline Mean [12, 15]: 57.2 % predicted | % Predicted FVC CFBL M12 (W 52) Mean [12, 15]: 3.2 % predicted | % Predicted FVC CFBL M24 (W 104) Mean [12, 15]: 4.7 % predicted | AUC0-inf, mean [13, 17]: 1812 µg·h/mL | Cmax, mean [13, 17]: 345 µg/mL | AUC0-inf, mean ([13]; 20 mg/kg without Miglustat): 1410 µg·h/mL | Cmax, mean ([13]; 20 mg/kg without Miglustat): 325 µg/mL
